What was measured:
potatoes = assay: Yield increase test of potatoes (field); format: in vivo, potato
Protocol: (§1) (1) Yield increase and disease control test of potatoes with fungicidal fertilizer composition of the present invention. This test was conducted in 2017 in Anding District, Dingxi City, Gansu Province. This area is a typical semi-arid rain-fed agricultural area. The soil type is loessial soil, with deep soil layers and uniform soil fertility. The previous crop is rape. The fertilizer of the present invention was totally applied as a base fertilizer at a time. […] Ridging after flat planting in wide and narrow rows was adopted. The wide row spacing was 60 cm, the narrow row spacing was 30 cm, the plant spacing was 30 cm, the sowing depth was 15 cm, and the plant density was 58,000 plants·hm^−2. Other field management was the same as that in large area of field. The number of large- and medium-sized potatoes ([…]) per plant was randomly determined, and the relative increase rate of large- and medium-sized potatoes was determined. The yield per mu and the relative increase rate of yield were determined. The crude starch content and increase rate of crude starch content were determined. The control effect on root rot of potatoes was also determined.

root rot of potatoes = assay: Disease control test of potatoes (field), root rot; format: in vivo, potato
Protocol: as §1

soybean = assay: Yield increase test of soybean; format: in vivo; conditions: for Yield (667 M^2): per 667 M^2
Protocol: (§2) Fertilization method: The fertilizer was co-applied with other fertilizers. The yield, quality and control effect on disease on soybean were determined.

[1] = system: root rot, a soil-borne disease of soybeans; assay: Disease control test of soybean, root rot; format: in vivo
Protocol: as §2

Chinese wolfberry = assay: Yield increase and quality test of Chinese wolfberry; format: in vivo, Chinese wolfberry "Ningqi No. 7"
Protocol: The test was carried out in a Chinese wolfberry planting test plot in Koluke Town, Delingha City, Qinghai Province. Chinese wolfberry plants were all three-year-old seedlings of variety “Ningqi No. 7” at a density of 270 plants/667 m^2. This experiment was designed such that different plots were arranged in order. […]. Fertilization method: It was applied together with other base fertilizers, by laying the fertilizer at the bottom of the planting pit, where the depth of the trench was 70 cm, the diameter of the pit was 80 cm, and the soil was mixed in and applied at the bottom when applying fertilizer. The yield, quality and control effect on disease on fresh Chinese wolfberry fruit were determined.

peanut = assay: Yield increase and quality test of peanut; format: in vivo
Protocol: […]. Fertilization method: The fertilizer was applied three times by spraying during the flowering and fruiting period. The yield, quality and control effect on disease on peanut were determined.

pepper = assay: Yield increase and quality test of pepper; format: in vivo; conditions: 40 g active ingredient per mu
Protocol: (§3) This fertilizer was applied on the basis of conventional fertilization in each treatment area. Fertilization method: The fertilizer was applied by spraying during the seedling stage of pepper. The yield, quality and control effect on disease on pepper were determined.

Disease (blight) = assay: Disease control test of pepper, blight; format: in vivo; conditions: 40 g active ingredient per mu
Protocol: as §3

tomato = assay: Yield increase and quality test of tomato; format: in vivo; conditions: 60 g active ingredient per mu
Protocol: […]. This fertilizer was applied on the basis of conventional fertilization in each treatment area. Fertilization method: The fertilizer was applied by spraying during the seedling stage of tomato. The yield, quality and control effect on disease on tomato were determined.

Disease (rot) = assay: Disease control test of tomato, rot; format: in vivo; conditions: 60 g active ingredient per mu
Protocol: This fertilizer was applied on the basis of conventional fertilization in each treatment area. Fertilization method: The fertilizer was applied by spraying during the seedling stage of tomato. The yield, quality and control effect on disease on tomato were determined.

[2] = amount 50 g active ingredient/mu
[3] = amount 100 g active ingredient/mu
[4] = amount 400 g active ingredient/mu

Question: Which results are given for γ-poly-glutamic acid?
Answer: Crude starch content (potatoes; [2]): 16.1%; Fresh weight of large- and medium-sized potatoes (potatoes; [2]): 481.3 g/plant; Increase rate of crude starch content (potatoes; [2]): 1.9%; Increase rate of large- and medium-sized potatoes (potatoes; [2]): 6.5%; Increase rate of yield (potatoes; [2]): 4.4%; Yield (potatoes; [2]): 1343 kg/mu; Crude starch content (potatoes; [3]): 16.4%; Fresh weight of large- and medium-sized potatoes (potatoes; [3]): 492.6 g/plant; Increase rate of crude starch content (potatoes; [3]): 3.8%; Increase rate of large- and medium-sized potatoes (potatoes; [3]): 9.0%; Increase rate of yield (potatoes; [3]): 7.5%; Yield (potatoes; [3]): 1383 kg/mu; Crude starch content (potatoes; [4]): 17.1%; Fresh weight of large- and medium-sized potatoes (potatoes; [4]): 499.3 g/plant; Increase rate of crude starch content (potatoes; [4]): 8.2%; Increase rate of large- and medium-sized potatoes (potatoes; [4]): 10.5%; Increase rate of yield (potatoes; [4]): 10.6%; Yield (potatoes; [4]): 1422 kg/mu; Control effect (root rot of potatoes; amount 50 g active ingredient/mu, 10 days after application): 9.87%; Control effect (root rot of potatoes; amount 50 g active ingredient/mu, 30 days after application): 4.34%; Control effect (root rot of potatoes; amount 100 g active ingredient/mu, 10 days after application): 17.34%; Control effect (root rot of potatoes; amount 100 g active ingredient/mu, 30 days after application): 14.47%; Control effect (root rot of potatoes; amount 400 g active ingredient/mu, 10 days after application): 32.51%; Control effect (root rot of potatoes; amount 400 g active ingredient/mu, 30 days after application): 25.37%; Branches (soybean; 15 g/mu): 17.5 count; Increase rate (branches) (soybean; 15 g/mu): 1.2%; Increase rate (weight per 100 grains) (soybean; 15 g/mu): 2.8%; Increase rate (yield) (soybean; 15 g/mu): 2.9%; Weight per 100 grains (soybean; 15 g/mu): 25.43 g; Yield (667 M^2) (soybean; 15 g/mu): 181.7; Branches (soybean; 50 g/mu): 17.8 count; Increase rate (branches) (soybean; 50 g/mu): 2.7%; Increase rate (weight per 100 grains) (soybean; 50 g/mu): 3.5%; Increase rate (yield) (soybean; 50 g/mu): 4.5%; Weight per 100 grains (soybean; 50 g/mu): 25.61 g; Yield (667 M^2) (soybean; 50 g/mu): 184.5; Branches (soybean; 100 g/mu): 18.0 count; Increase rate (branches) (soybean; 100 g/mu): 4.1%; Increase rate (weight per 100 grains) (soybean; 100 g/mu): 4.1%; Increase rate (yield) (soybean; 100 g/mu): 5.7%; Weight per 100 grains (soybean; 100 g/mu): 25.75 g; Yield (667 M^2) (soybean; 100 g/mu): 186.7; Branches (soybean; 300 g/mu): 18.1 count; Increase rate (branches) (soybean; 300 g/mu): 4.6%; Increase rate (weight per 100 grains) (soybean; 300 g/mu): 5.3%; Increase rate (yield) (soybean; 300 g/mu): 7.3%; Weight per 100 grains (soybean; 300 g/mu): 26.05 g; Yield (667 M^2) (soybean; 300 g/mu): 189.5; Branches (soybean; 600 g/mu): 18.3 count; Increase rate (branches) (soybean; 600 g/mu): 5.7%; Increase rate (weight per 100 grains) (soybean; 600 g/mu): 6.8%; Increase rate (yield) (soybean; 600 g/mu): 10.5%; Weight per 100 grains (soybean; 600 g/mu): 26.42 g; Yield (667 M^2) (soybean; 600 g/mu): 195.1; Control effect ([1]; 15 g/mu, 12 days after application): 9.70%; Control effect ([1]; 15 g/mu, 35 days after application): 4.22%; Control effect ([1]; 50 g/mu, 12 days after application): 14.20%; Control effect ([1]; 50 g/mu, 35 days after application): 7.86%; Control effect ([1]; 100 g/mu, 12 days after application): 20.13%; Control effect ([1]; 100 g/mu, 35 days after application): 10.67%; Control effect ([1]; 300 g/mu, 12 days after application): 22.71%; Control effect ([1]; 300 g/mu, 35 days after application): 15.76%; Control effect ([1]; 600 g/mu, 12 days after application): 27.52%; Control effect ([1]; 600 g/mu, 35 days after application): 18.89%; Quality: Polysaccharide (Chinese wolfberry; 50 g/mu): 8.79%; Quality: Total amino acid content (Chinese wolfberry; 50 g/mu): 7.53%; Yield of fresh Chinese wolfberry fruit: Weight per 100 fruits (Chinese wolfberry; 50 g/mu): 117.5 g; Yield of fresh Chinese wolfberry fruit: Yield (Chinese wolfberry; 50 g/mu): 2524.5 kg/mu; Quality: Polysaccharide (Chinese wolfberry; 100 g/mu): 9.54%; Quality: Total amino acid content (Chinese wolfberry; 100 g/mu): 7.68%; Yield of fresh Chinese wolfberry fruit: Weight per 100 fruits (Chinese wolfberry; 100 g/mu): 124.7 g; Yield of fresh Chinese wolfberry fruit: Yield (Chinese wolfberry; 100 g/mu): 2658.6 kg/mu; Quality: Linoleic acid (peanut; 30 g/mu): 44.52%; Quality: Protein (peanut; 30 g/mu): 22.91%; Yield (peanut; 30 g/mu): 285.3 kg/mu; Yield: Seed yield (peanut; 30 g/mu): 66.7%; Yield: Weight per 100 fruits (peanut; 30 g/mu): 113.4 g; Quality: Linoleic acid (peanut; 60 g/mu): 45.36%; Quality: Protein (peanut; 60 g/mu): 24.31%; Yield (peanut; 60 g/mu): 310.8 kg/mu; Yield: Seed yield (peanut; 60 g/mu): 69.1%; Yield: Weight per 100 fruits (peanut; 60 g/mu): 126.7 g; Quality: Vitamin C (pepper): 26.8 mg/100 g; Yield: Total yield (pepper): 3382 kg/mu; Yield: Weight of single fruit (pepper): 49.2 g; Disease (blight): Control effect (Disease (blight); 10 days after application): 26.27%; Disease (blight): Control effect (Disease (blight); 42 days after application): 10.26%; Quality: Amino acid (tomato): 610.17 mg/100 kg; Quality: Vitamin C (tomato): 17.32 mg/100 g; Yield: Total yield (tomato): 3519 kg/mu; Yield: Weight of single fruit (tomato): 21.7 g; Disease (rot): Control effect (Disease (rot); 12 days after application): 21.35%; Disease (rot): Control effect (Disease (rot); 45 days after application): 7.26%

Source: patent US20210078917A1, “FUNGICIDAL FERTILIZER COMPOSITION COMPRISING POTASSIUM PHOSPHITE AND GAMMA-POLY-GLUTAMIC ACID” (JIANGSU HUIFENG BIO AGRICULTURE CO., LTD., priority 2018, published 2021)
